In US10738041B2, “Ferroportin inhibitors” (Vifor (International) AG, priority 2015, dated 2020):

How the values were obtained:
[1] = target: T1, ferroportin (Fpn) (Mus musculus, UniProt Q9JHI9); assay: Hepcidin Internalization Assay (J774); format: cell-based; details: average of multiple measurements; inhibition of TMR-hepcidin (25 nM) internalization into J774 cells; read-out: J774 IC50
T1 construct: host or cells: J774 mouse macrophage cell line, Fe(III)-NTA induced
T1 sequence (Q9JHI9 1-570): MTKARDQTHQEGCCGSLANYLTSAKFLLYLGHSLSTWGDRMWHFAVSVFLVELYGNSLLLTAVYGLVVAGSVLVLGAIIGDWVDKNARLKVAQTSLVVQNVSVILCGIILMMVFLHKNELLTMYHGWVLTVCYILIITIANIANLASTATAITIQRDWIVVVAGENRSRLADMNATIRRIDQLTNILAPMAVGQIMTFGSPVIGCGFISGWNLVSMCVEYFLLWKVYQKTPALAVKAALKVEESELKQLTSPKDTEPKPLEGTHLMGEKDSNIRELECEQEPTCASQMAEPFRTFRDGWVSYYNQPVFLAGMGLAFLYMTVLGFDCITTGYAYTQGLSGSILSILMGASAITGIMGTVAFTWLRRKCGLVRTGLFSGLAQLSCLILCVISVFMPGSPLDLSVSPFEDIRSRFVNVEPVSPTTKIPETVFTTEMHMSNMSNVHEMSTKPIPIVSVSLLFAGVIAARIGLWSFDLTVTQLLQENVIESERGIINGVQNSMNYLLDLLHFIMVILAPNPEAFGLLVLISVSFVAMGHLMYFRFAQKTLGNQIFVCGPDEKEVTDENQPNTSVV
From the text: This cellular assay allows quantification of the binding of hepcidin to ferroportin (Fpn) through microscopic detection of internalization of a fluorescently labeled hepcidin into J774 cells. […] Binding of hepcidin to Fpn triggers internalization and degradation of both hepcidin and Fpn. However, the TMR (6-carboxytetramethylrhodamine) fluorophore attached to hepcidin remains associated with the cell after degradation of the hepcidin peptide backbone. Therefore, microscopic detection of ceH associated TMR fluorescence is a measure of hepcidin binding to Fpn and internalization of hepcidin and Fpn. If TMR-hepcidin is prevented from binding to Fpn, cellular TMR fluorescence remains low (Dürrenberger et al, 2013). The effect of small molecular weight Fpn inhibitor compounds in this assay was evaluated in vitro as described below.
J774 cells, harvested from ca. 80% confluent cultures, were plated at 8×10^5 cells/ml in complete medium (DMEM, 10% FBS, 1% Penicillin-Streptomycin) containing 200 μM Fe(III)NTA (nitrilotriacetic acid), 100 μl per well of 96 well MicroClear plates (Greiner; Cat. 655090) and grown at 37° C. with 5% CO2. After overnight incubation, cells were washed 3 times with pre-warmed DMEM w/o phenol red, 30 μl/well of DMEM w/o phenol red was added after the final wash and 10 μl/well of dilution series of test compounds were added in triplicates. […] Cells were incubated in a total volume of 50 μl at 37° C. with 5% CO2 for 2 hours, then Hoechst 33342 dye was added to a final concentration of 0.5 μg/ml to stain nuclei and further incubated for 10 min. at 37° C. with 5% CO2. Cells were washed 3 times with PBS and fixed in 100 μl of 4% paraformaldehyde in PBS for 15 min. at room temperature. After removal of the paraformaldehyde solution, cells were washed 3 times with PBS leaving 100 μl per well and the plates were sealed with foil plate seal. TMR (530-550 nm excitation/575-625 nm emission/400 ms exposure time) and Hoechst 33342 (360-370 nm excitation/420-460 nm emission/10 ms exposure time) fluorescence images were acquired using a ScanR plate imager (Olympus) with a 20× high NA objective. Four pictures were acquired per well and fluorescence channel covering ca. 1500 cells per well. The acquired image data was analysed with the ScanR image analysis software. Image analysis included detection of nuclei (Hoechst 33342 fluorescence), identification of cell-associated regions, application of a virtual channel and thresholding for rolling-ball-type background reduction, followed by application of the Sum(Mean) algorithm to measure the TMR fluorescence associated with cells as a quantitative measure for internalized TMR-hepcidin. IC50 values were calculated with the Sum(Mean) raw data using “log(inhibitor) vs. response” curve fitting of Prism 5 software (GraphPad Software Inc., version 5.02).

[2] = target: T2, human Fpn (Homo sapiens, UniProt Q9NP59); assay: Biophysical Ferroportin-Hepcidin Binding Assay (fluorescence polarization); details: average of multiple measurements; 1 μM human Fpn, 20 nM TMR-hepcidin; read-out: FP IC50
T2 construct: FLAG (C); made in house; host or cells: Pichia pastoris
T2 sequence (Q9NP59 1-571): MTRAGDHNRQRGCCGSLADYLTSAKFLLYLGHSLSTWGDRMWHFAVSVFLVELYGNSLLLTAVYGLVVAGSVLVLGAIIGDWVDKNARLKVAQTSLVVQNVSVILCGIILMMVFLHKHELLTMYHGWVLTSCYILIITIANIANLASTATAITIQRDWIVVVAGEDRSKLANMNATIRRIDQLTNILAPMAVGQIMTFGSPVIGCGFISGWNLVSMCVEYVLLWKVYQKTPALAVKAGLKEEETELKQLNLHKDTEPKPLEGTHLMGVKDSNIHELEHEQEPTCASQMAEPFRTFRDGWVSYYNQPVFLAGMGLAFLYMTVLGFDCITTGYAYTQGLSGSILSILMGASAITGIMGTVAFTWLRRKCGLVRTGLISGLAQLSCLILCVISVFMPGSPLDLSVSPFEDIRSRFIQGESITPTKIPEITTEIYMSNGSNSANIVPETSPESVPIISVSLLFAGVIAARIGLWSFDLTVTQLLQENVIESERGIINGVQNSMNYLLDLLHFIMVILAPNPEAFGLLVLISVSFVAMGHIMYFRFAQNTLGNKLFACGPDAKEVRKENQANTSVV
Experimental: This biophysical assay was developed to confirm inhibition of hepcidin binding to ferroportin (Fpn) more directly. Incubation of TMR-hepcidin with purified human Fpn isolated from Pichia pastoris yeast cells expressing human Fpn with a C-terminal FLAG affinity tag (Bonaccorsi di Patti, 2014) leads to increased fluorescence polarization (FP) of the TMR-hepcidin ligand. Small molecular weight Fpn inhibitors were tested for inhibition of binding of TMR-hepcidin to Fpn, as detected by dose-dependent decrease of the TMR FP signal, as described in detail below.
8 μl of serial dilutions of test compounds were added in duplicates to reach final Fpn and TMR-hepcidin concentrations of 1 μM and 20 nM, respectively. Plates were incubated for 90 minutes at room temperature and parallel (S) and perpendicular (P) fluorescence was measured in a Synergy H1 fluorescence reader (BioTek). FP values were calculated in mP according to the following formula.

Compound | IC50 [1] | IC50 [2]
O=C(NCc1c(F)cccc1F)c1csc(CCNCc2nc3ccccc3[nH]2)n1 [Example 69] | 260 nM | 1510 nM
CC(NC(=O)c1csc(CCNCc2nc3ccccc3[nH]2)n1)c1ccccc1 (stereo not drawn) [Example 73] | 370 nM | 1000 nM
O=C(NCc1ncccc1F)c1cccc(CCNCCc2nc3c(F)cccc3[nH]2)c1 [Example 241] | 2100 nM | 1650 nM
CC(C)N(C(=O)c1csc(CCNCc2nc3ccccc3[nH]2)n1)C1CCCCC1 [Example 25] | 2200 nM | 3930 nM
O=C(CC(=O)NCc1ncccc1F)NCCNCc1nc2ccccc2[nH]1 [compound 149] | 6250 nM | 17000 nM
O=C(NCc1cccc(N2CCCC2)c1)c1csc(CCNCc2nc3ccccc3[nH]2)n1 [Example 21] | 6700 nM | 1430 nM
Cn1cc(C(=O)NCc2ncccc2F)nc1CCNCc1nc2ccccc2[nH]1 [Example 210] | 4910 nM | 1880 nM
Cn1cc(CNC(=O)c2csc(CCNCc3nc4ccccc4[nH]3)n2)cn1 [Example 91] | 2070 nM | 12100 nM
O=C(NCc1ccc[nH]c1=O)c1csc(CCNCc2nc3ccccc3[nH]2)n1 [Example 83] | 96 nM | 1050 nM
O=C(c1csc(CCNCc2nc3ccccc3[nH]2)n1)N1CCCCC1 [compound 14] | 4900 nM | 14900 nM
Cc1cnc(CNC(=O)c2nc(CCNCc3nc4ccccc4[nH]3)sc2Cl)nc1 [Example 178] | 3640 nM | 1920 nM
O=C(NCc1ncccc1F)c1csc(CCNc2nc3ccccc3[nH]2)n1 [Example 121] | 473 nM | 5100 nM
O=C(NCc1ccccc1)c1csc(CCNCc2nc3cc(O)ccc3[nH]2)n1 [Example 30] | 12900 nM | 2330 nM
O=C(NCc1cccs1)c1csc(CCNCc2nc3ccccc3[nH]2)n1 [Example 16] | 900 nM | 1720 nM
CN(C)c1ccc(CNC(=O)c2csc(CCNCc3nc4ccccc4[nH]3)n2)cn1 [Example 98] | 1850 nM | 5710 nM
O=C(NCc1ncccc1F)c1cnn(CC2CCCN(Cc3nc4ccccc4[nH]3)C2)c1 (stereo not drawn) [Example 153] | – | 57800 nM
CN(CCc1nc2ccccc2[nH]1)CCc1nc(C(=O)NCc2ncccc2F)co1 [Example 223] | 1900 nM | 2680 nM
O=C(NCc1ccccc1N1CCOCC1)c1csc(CCNCc2nc3ccccc3[nH]2)n1 [Example 63] | 610 nM | 846 nM
COc1ccc(CNC(=O)c2csc(CCNCc3nc4ccccc4[nH]3)n2)nc1 [Example 45] | 440 nM | 2100 nM
NC(=O)c1ccc(CNC(=O)c2csc(CCNCc3nc4ccccc4[nH]3)n2)cn1 [Example 54] | 460 nM | 11400 nM

Compound | IC50 [1] | IC50 [2]
O=C(NCc1ccccn1)c1csc(C2CCN(CCc3nc4ccccc4[nH]3)C2)n1 (stereo not drawn) [Example 215] | 27700 nM | 15600 nM
O=C(NCc1ccccc1)c1csc(CCNCc2nc3cccnc3[nH]2)n1 [Example 33] | 3620 nM | 17200 nM
CN(C)C(=O)c1csc(CCNCc2nc3ccccc3[nH]2)n1 [Example 22] | 17200 nM | 14200 nM
O=C(NCc1ncccc1F)c1ccnc(CCNCc2nc3ccccc3[nH]2)c1 [compound 222] | 3400 nM | 808 nM
O=C(NCc1ccc(C(F)(F)F)nc1)c1csc(CCNCc2nc3ccccc3[nH]2)n1 [Example 81] | 420 nM | 2970 nM
O=C(NCc1nc2ccccc2[nH]1)c1csc(CCNCc2nc3ccccc3[nH]2)n1 [Example 60] | 2390 nM | 974 nM
O=C(NCc1ccnc(N2CCOCC2)c1)c1csc(CCNCc2nc3ccccc3[nH]2)n1 [Example 96] | 2970 nM | 7290 nM
O=C(NCc1ccccc1)c1csc(CCNCc2ccc(F)cn2)n1 [Example 6] | 12700 nM | 48600 nM
O=C(NCc1ncccc1F)c1csc(C2CCN(CCc3nc4ccccc4[nH]3)C2)n1 (stereo not drawn) [Example 214] | 14100 nM | 3190 nM
CC(C)(NC(=O)c1csc(CCNCc2nc3ccccc3[nH]2)n1)c1ccccc1 [Example 26] | 700 nM | 1120 nM
CN(Cc1ccccc1)C(=O)c1csc(CCNCc2nc3ccccc3[nH]2)n1 [Example 17] | 6400 nM | 3530 nM
CC1(c2nc(C(=O)NCc3ncccc3F)cs2)CN(CCc2nc3ccccc3[nH]2)C1 [Example 212] | 8510 nM | 3760 nM
Cn1c(CNCCc2nc(C(=O)NCc3ccccc3)cs2)nc2ccccc21 [Example 28] | 180 nM | 1220 nM
O=C(NCc1ncccc1F)c1cnn(CC2CN(Cc3nc4ccccc4[nH]3)C2)c1 [Example 187] | 87000 nM | 35500 nM
O=C(NCc1ncccc1F)c1csc([C@H]2[C@@H]3CN(CCc4nc5ccccc5[nH]4)C[C@@H]32)n1 [Example 218] | 4500 nM | 2200 nM
O=C(NCc1cccnn1)c1coc(C2CN(CCc3nc4c(F)cccc4[nH]3)C2)n1 [Example 261] | 554 nM | 440 nM
O=C(NCc1cccnc1)c1csc(CCNCc2nc3ccccc3[nH]2)n1 [Example 35] | 190 nM | 2160 nM
O=C(NCc1ccccc1OC(F)F)c1csc(CCNCc2nc3ccccc3[nH]2)n1 [Example 74] | 210 nM | 451 nM
O=C(NCc1ccncc1)c1csc(CCNCc2nc3ccccc3[nH]2)n1 [Example 36] | 250 nM | 3650 nM
O=C(NCc1ncccc1F)c1cnn(C2CCN(Cc3nc4ccccc4[nH]3)CC2)c1 [Example 150] | – | 73000 nM
